Laboratory results as given in US20220354835A1, “COMPOUNDS FOR DEGRADING TAU PROTEIN AGGREGATES AND USES THEREOF” (Aprinoia Therapeutics Limited, priority 2019, published 2022).

Columns and labels:
[1] = molecular target: T1, heparin-induced aggregated tau (aTau), full-length 2N4R human Tau (Homo sapiens, UniProt P10636); assay: PBB5 competition assay; assay type: binding; conditions: 0.12 μM aTau; for Emax: 0.1 μM PBB5, compound up to 10 μM, read-out: Competition Assay with PBB5: Bmax (%)
T1 construct: transformed with a full-length 2N4R tau expression plasmid; made in house; host or cells: E. coli BL21
T1 sequence (P10636 1-441 isoform P10636-8): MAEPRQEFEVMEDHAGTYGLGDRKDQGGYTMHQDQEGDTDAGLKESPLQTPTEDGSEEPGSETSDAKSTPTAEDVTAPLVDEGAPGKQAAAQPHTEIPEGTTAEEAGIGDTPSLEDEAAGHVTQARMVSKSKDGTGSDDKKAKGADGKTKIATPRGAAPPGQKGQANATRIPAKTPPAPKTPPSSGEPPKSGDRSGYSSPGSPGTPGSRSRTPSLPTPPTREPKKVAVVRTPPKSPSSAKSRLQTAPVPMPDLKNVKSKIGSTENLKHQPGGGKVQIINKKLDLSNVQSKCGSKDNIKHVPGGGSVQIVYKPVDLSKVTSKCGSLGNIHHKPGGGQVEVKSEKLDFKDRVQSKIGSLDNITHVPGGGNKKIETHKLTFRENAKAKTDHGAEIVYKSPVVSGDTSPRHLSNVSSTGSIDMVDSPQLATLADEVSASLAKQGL
Method: (§1) (A) Expression and purification of human Tau: 1 mM IPTG (Sangon Biotech, Cat. No A100487) was used to induce production of tau by bacteria (BL21, Invitrogen, Cat. No C600003) transformed with a full-length 2N4R tau expression plasmid. After 3 hours, cell pellet was resuspended in lysis buffer (100 mM PIPES, 1 mM EGTA, 1 mM MgSO4, pH 6.8) and lysed by sonication followed by centrifugation (15,000 rpm, 15 min, 4° C.). The supernatant was then placed in a boiling water bath for 20 min, followed by centrifugation (15,000 rpm, 15 min, 4° C.). Supernatant was loaded onto a Q-Sepharose® Fast Flow column (GE healthcare, Cat. No 17-0510-01), the flow-through fraction was loaded onto an SP-Sepharose® Fast Flow column (GE healthcare, Cat. No 17-0729-01), and tau protein was eluted with elution buffer (100 mM PIPES, 1 M NaCl, 1 mM EGTA, 1 mM MgSO4, 0.2 M NaCl, pH 6.8). Collected fractions of tau-containing eluates were pooled, concentrated and dialyzed against HEPES buffer (25 mM HEPES, 0.1 mM EDTA, 0.5 mM DTT, 100 mM NaCl, pH 7.2) and stored at −80° C. in small aliquots until use. Protein concentration was determined by UV absorption.
(§2) (B) Preparation of heparin-induced aggregated tau (aTau): 2 μM of tau prepared in 30 mM Tris-HCl, pH 7.5 buffer was incubated in tube with 15 μM heparin (Sigma, Cat. No H3149) at 37° C. for 24 hours.
(E) PBBS competition assay: 2 μM of aTau was diluted to 0.12 μM by […] (pH 6.8) and then incubated with 0.1 μM 2-(4-(2-(methylamino)pyridine-5-yl)-1,3-butadiene-1-yl)benzothiazole-6-ol (PBB5) and serially diluted compound (three-fold serial dilution, from 10 to 0.00017 μM) in a 96-well plate (Corning, Cat. No 3573) at 37° C. for 1 hour. Fluorescence intensity (excitation/emission=530/690 nm) of PBB5 was read by microplate spectrometer (EnSpire 2300, PerkinElmer). Percentage of competition was calculated using the following equation: (Max−well of compound alone)/(Max−Min)*100%, where Max=(Tau+PBB5) signals−(buffer+PBB5) signals; and Min=(buffer+PBB5) signals−(buffer+PBB5) signals.
The IC50 value of each compound was calculated with GraphPad Prism software using the “4 Parameter Logistic Model or Sigmoidal Dose-Response Model”:
Y=Bottom+(Top−Bottom)/(1+(IC50/×)^HillSlope)

[2] = molecular target: T1, heparin-induced aggregated tau (aTau), full-length 2N4R human Tau; assay: In vitro fluorometric aTau binding assay; conditions: 0.04 μM aTau, serially diluted compound 10 to 0.00017 μM, 37° C. 1 hour, fluorescence
Method: as §1, §2
(D) In vitro fluorometric aTau binding assays: 2 μM aTau was diluted to 0.04 μM with 30 mM Tris-HCl (pH 6.8), and then incubated with serially diluted compound (three-fold serial dilutions, from 10 to 0.00017 μM) in a 96-well plate (Corning, Cat. No 3573) at 37° C. for 1 hour. Fluorescence intensity (excitation/emission=370/500 nm) of APN-0729 was read by microplate spectrometer (EnSpire 2300, PerkinElmer). Compound Kd values were calculated using the following equation: Y=Bmax* X (Kd+X), where X is the concentration of compound; Y is the fluorescence signal of (compound+aTau)−(compound+DMSO); and Bmax is the maximum signal.

[3] = molecular target: T2, Tau aggregates in P301L-Tau-FL-GFP HEK293 cells (Homo sapiens, UniProt P10636, P618L); assay: Tau degradation assay (APNmAb005 ELISA-based Tau aggregation assay); assay type: cell-based; conditions: for inhibition at 1 µM: 1 μM of compound, 24 hours, P301L-Tau-FL-GFP HEK293 cells seeded with rTg4510 brain lysate, read-out: Activity (reduction of tau aggregates)
T2 construct: express full-length human tau T40 (2N4R) carrying the P301L mutation with a GFP tag; expressed in transfected cells
T2 sequence (P10636 1-441 isoform P10636-8 P301L): as the sequence (P10636 1-441 isoform P10636-8) above, with P301L counted along it
Method: (A). Cell-based model of Tau inclusion formation: Six month old rTg4510 mouse brain lysates were used as the source of tau seeds, prepared as described in Example 26 above. P301L-Tau-FL-GFP HEK293 cells represent HEK293 cells express full-length human tau T40 (2N4R) carrying the P301L mutation with a GFP tag (P301L-Tau-FL-GFP). 1×10^6 of P301L-Tau-FL-GFP HEK293 cells were cultured on a 6-well plate in culture medium containing DMEM/F-12 (Gibco) supplemented with 10% fetal bovine serum (FBS) (Gibco), 1% Penicillin-Streptomycin (Gibco) and 0.5 mg/ml geneticin (Thermo Fisher Scientific) for 24 hours to reach 70-90% confluency, indicating the cells were ready for transfection. 50 μg of 6-month-old rTg4510 mouse brain lysate was diluted in 400 μL of serum free medium and mixed with 16 μL of lipofectamine 3000 reagent (Thermo Fisher Scientific) diluted in 400 μl of serum free medium. A solution mixture of rTg4510 brain lysate and lipofectamine 3000 was incubated at room temperature for 25 min. The culture media were removed, and then a solution mixture of rTg4510 lysate and lipofectamine 3000 was added to the cells for transfection. The solution mixture was incubated at room temperature for five hours, followed by medium change to 10% fetal bovine serum (FBS). After two-day incubation, Tau aggregates (Tau spots) were induced and images were acquired by ImageXpress Micro Confocal high-content imaging system (Molecular Devices) as described in Example 52 above. Analysis was performed by two customized modules in MetaXpress software (Molecular Devices) for aggregated tau analysis. Output included cell numbers, numbers of tau spots, average intensity of tau spots, and average size of tau spots.
(B). Compound treatment: 100 μL of 3×10^4 cells comprising Tau aggregates, prepared as described above in step (A), were plated on a 96-well plate coated with poly-D-lysine (BD Biosciences) and cultured for 24 hours. Compounds to be tested were dissolved in culture medium containing 0.1% DMSO. Each of test compounds in the concentration of 1, 0.2 and 0.04 μM was added to the cells comprising Tau aggregates and incubated at 37° C. for 24 hours. After that, culture medium was removed, cells were washed with PBS solution and then lysed using 30 μL of lysis buffer (PBS containing 0.3% Triton X-100 and 400 mM NaCl) for one hour at 4° C., and then cell lysate was diluted by 170 μl of PBS containing 400 mM NaCl. Cell lysate was filtrated by a […] filtration plate (Pall) and applied for Tau aggregation assay.
(C). Control cell lysate: control cell lysate was collected from non-seeded cells.
(D). ELISA-based Tau aggregation assay: APNmAb005 ELISA kit for Tau aggregation assay was designed and developed to detect abnormal tau aggregates in buffered solution or cell lysate by using anti-Tau APNmab005 as capture and detection antibody. This antibody is a highly specific antibody bound to human tau aggregates accumulated in mammalian cells. APNmAb005 is recited in PCT Patent Application No. PCT/M2020/057415, filed Aug. 5, 2020, which is incorporated herein by reference.
0.15 μg of APNmAb005 in 100 mM sodium carbonate buffer (pH 9.6) was coated on a high-binding polystyrene 96-well microplate (Greiner Bio-One) at 4° C. overnight. The microplate was washed with PBS followed by treatment with Intercept (PBS) blocking buffer (LI-COR) at room temperature for 2 hours. After that, the microplate was washed with PBS, and then the cell lysate with compound treatment, prepared as described above in step (C), was added into each well of the microplate and incubated at room temperature for 2 hours. The microplate was washed with PBS and then incubated with HRP-conjugated secondary antibody APNmAb005 at room temperature for 3 hours. HRP-conjugated secondary antibody APNmAb005 was prepared using HRP conjugation kit (Abcam,ab102890). The microplate was then washed with PBS and incubated with 100 μL of horseradish peroxidase (HRP) substrate at room temperature. […]

CN(C)c1ccc2nc(-c3ccc(-c4ccc(NCCOCCOCCOCCOCCOCCOc5ccc6c(c5)C(=O)N(C5CCC(=O)NC5=O)C6=O)nc4)cc3)sc2c1 (stereo not drawn) [Compound 160275, 2-[2,6-bis(oxo)piperidin-3-yl]-5-[2-[2-[2-[2-[2-[2-[[5-[4-[6-(dimethylamino)-1,3-benzothiazol-2-yl]phenyl]pyridin-2-yl]amino]ethoxy]ethoxy]ethoxy]ethoxy]ethoxy]ethoxy]isoindole-1,3-dione]
IC50 ([1]; 0.1 μM PBB5, 37° C. 1 hour, PBB5 fluorescence 530/690 nm): 1290 nM
Emax [1]: 96%
Kd [2]: 230 nM

CN(C)c1ccc(-c2ccc(-c3cn4cc(OCCOCCN5C(=O)CCC(N6C(=O)c7ccc(O)cc7C6=O)C5=O)ccc4n3)cc2)c(F)n1 (stereo not drawn) [Compound 160570, 2-[1-[2-[2-[2-[4-[6-(dimethylamino)-2-fluoranyl-pyridin-3-yl]phenyl]imidazo[1,2-a]pyridin-6-yl]oxyethoxy]ethyl]-2,6-bis(oxidanylidene)piperidin-3-yl]-5-oxidanyl-isoindole-1,3-dione]
Emax [1]: 100%

CN(C)c1ccc2nc(-c3ccc(-c4ccc(NCCOCCN5C(=O)CCC(N6C(=O)c7ccc(O)cc7C6=O)C5=O)nc4)cc3)sc2c1 (stereo not drawn) [Compound 160703, 2-[1-[2-[2-[[5-[4-[6-(dimethylamino)-1,3-benzothiazol-2-yl]phenyl]pyridin-2-yl]amino]ethoxy]ethyl]-2,6-bis(oxidanylidene)piperidin-3-yl]-5-oxidanyl-isoindole-1,3-dione]
Emax [1]: 100%

CN(C)c1ccc(-c2ccc(-c3nc4ccc(NCCOCCOCCOCCOc5ccc6c(c5)C(=O)N(C5CCC(=O)NC5=O)C6=O)cc4s3)cc2)cn1 (stereo not drawn) [Compound 160939, 2-[2,6-bis(oxo)piperidin-3-yl]-5-[2-[2-[2-[2-[[2-[4-[6-(dimethylamino)pyridin-3-yl]-phenyl]-1,3-benzothiazol-6-yl]amino]ethoxy]ethoxy]ethoxy]ethoxy]isoindole-1,3-dione]
inhibition at 1 µM [3]: < 10%

COc1ccc2nc(-c3ccc(-c4ccc(NCCOCCOc5ccc6c(c5)C(=O)N(C5CCC(=O)NC5=O)C6=O)nc4F)cc3)cn2c1 (stereo not drawn) [Compound 161215, 2-[2,6-bis(oxo)piperidin-3-yl]-5-[2-[2-[[6-fluoro-5-[4-(6-methoxyimidazo[1,2-a]pyridin-2-yl)phenyl]pyridin-2-yl]amino]ethoxy]ethoxy]isoindole-1,3-dione]
inhibition at 1 µM [3]: 10 to 20%

COc1ccc2nc(-c3ccc(-c4ccc(NCCOCCOCCOCCOCCOCCOc5ccc6c(c5)C(=O)N(C5CCC(=O)NC5=O)C6=O)nc4F)cc3)cn2c1 (stereo not drawn) [Compound 161409]
inhibition at 1 µM [3]: 10 to 20%

COc1ccc2nc(-c3ccc(-c4ccnc(NCCOCCOc5ccc6c(c5)CN(C5CCC(=O)NC5=O)C6=O)c4)cc3)cn2c1 (stereo not drawn) [Compound 162640, 3-[6-[2-[2-[[4-[4-(6-methoxyimidazo[1,2-a]pyridin-2-yl)phenyl]pyridin-2-yl]amino]ethoxy]ethoxy]-3-oxidanylidene-1H-isoindol-2-yl]piperidine-2,6-dione]
inhibition at 1 µM [3]: 10 to 20%

CN(C)c1ccc(-c2ccc(-c3cn4cccc(OCCOCCOc5ccc6c(c5)CN(C5CCC(=O)NC5=O)C6=O)c4n3)cc2)cn1 (stereo not drawn) [Compound 162842]
Optical Density (O.D.) 450 value decrease compared to vehicle (reduction of Tau aggregates) ([3]; 1 μM compound, APNmAb005 ELISA): 20%
inhibition at 1 µM [3]: > 20%

CN(C)c1ccc(-c2ccc(-c3nc4ccc(OCCOCCOc5ccc6c(c5)CN(C5CCC(=O)NC5=O)C6=O)cc4s3)c(C(F)(F)F)c2)cn1 (stereo not drawn) [Compound 162903]
inhibition at 1 µM [3]: 10 to 20%

CN(C)c1ccc(-c2ccc(-c3nc4ccc(OCCOCCOc5ccc6c(c5)CN(C5CCC(=O)NC5=O)C6=O)cc4s3)cc2)cn1 (stereo not drawn) [Compound 163123]
inhibition at 1 µM [3]: 10 to 20%

CN(C)c1ccc(-c2ccc(-c3nc4ccc(OCCOCCOc5ccc6c(c5)CN(C5CCC(=O)NC5=O)C6=O)cc4o3)cc2)cn1 (stereo not drawn) [Compound 163365]
inhibition at 1 µM [3]: 10 to 20%

CN(C)c1ccc(-c2ccc(-c3cn4cc(OCCOCCN5C(=O)CCC(N6C(=O)c7ccc(O)cc7C6=O)C5=O)ccc4n3)cc2)c(F)n1 (stereo not drawn) [Compound 170350]
inhibition at 1 µM [3]: 10 to 20%

CN(C)c1ccc(-c2ccc(-c3nc4ccc(OCCOCCOCCOc5ccc6c(c5)CN(C5CCC(=O)NC5=O)C6=O)cc4s3)c(C(F)(F)F)c2)cn1 (stereo not drawn) [Compound 174251]
inhibition at 1 µM [3]: < 10%

CN(C)c1ccc2nc(-c3ccc(-c4ccc(NCCOCCOc5ccc6c(c5)CN(C5CCC(=O)NC5=O)C6=O)nc4)cc3C(F)(F)F)sc2c1 (stereo not drawn) [Compound 177031]
inhibition at 1 µM [3]: < 10%

COc1ccc2nc(-c3ccc(-c4ccc(NCCOCCOc5cccc6c5C(=O)N(C5CCC(=O)NC5=O)C6=O)nc4)cc3)sc2c1 (stereo not drawn) [Compound 177038]
inhibition at 1 µM [3]: < 10%
